Laboratory results as given in a melting point compilation (Tetko et al.; mined from patent text by program, amines drawn as free bases though some values may be those of a salt).

Compound | melting point [°C]
OCC1OC(OC2C(CO)OC(CO)C2O)C(O)C(O)C1O (configuration not stated) | 162 to 164
O=C(Nc1cc(Cl)ccc1-c1nnn[nH]1)c1cnn(-c2ccc(Cl)cc2)c1C(F)(F)F | 176 to 180
OCc1ccc(-c2ccc(-c3cn([C@H]4CN5CCC4CC5)nn3)o2)cc1 | 209
COc1ccc(COCn2cc(Cl)cnc2=O)cc1 | 118
CCCCCCCCCCC(=O)C(=O)N[C@@H](CCCC)CCC(=O)O | 50 to 52
COc1cc(-c2cc(C3CCOCC3)no2)cc2oc(=O)c(C)c(C)c12 | 151
CCN1CCc2c(Br)ccc([N+](=O)[O-])c2C1 | 52 to 53
CC(C)(COc1ccc(-n2cc(C(=O)O)cn2)cc1C#N)C(=O)O | 230 to 233
CC/C=C/CNC(=O)[C@H]1N(C(=O)[C@@H](O)[C@H](Cc2ccccc2)NC(=O)c2cccc(O)c2C)CSC1(C)C | 113 to 115
COc1ccc(CNc2ccccc2C(=O)Nc2ccc(Br)c(C(F)(F)F)c2)cn1 | 101 to 103
CS(=O)c1ccc2[nH]c3cc(C(=O)Nc4nnn[nH]4)nn3c(=O)c2c1 (configuration not stated) | > 350
Cc1c(SCCCSc2ncccn2)ccnc1CNc1cnc2ccccc2c1 | 132 to 133
O=C1c2cc(-c3ccc(C(F)(F)F)cc3)ccc2CC1Br (configuration not stated) | 105
CCOC(=O)c1c(Cl)nc2ccccc2c1-c1ccc(F)cc1 | 113 to 114
CN(c1cccc2cc(C3=NCC(CN4CCS(=O)CC4)S3)[nH]c12)S(=O)(=O)c1cccs1 (configuration not stated) | 204
CC(C)(C)c1cc2c(=O)[nH]cnc2o1 | 198 to 200
CCCCSc1cc(C(=O)OCC#N)cc(S(N)(=O)=O)c1Oc1ccccc1 | 134 to 135
Cc1ccc2[nH]c(=O)n(C3CCNCC3)c2c1 | > 300
Cc1cc(C)c(C)c(COc2ccc(-c3ccoc3C(=O)NNC(=O)c3ccc(O)c(C#N)c3)cc2)c1C | 183 to 186
COCc1cc(Oc2ccc3c(C(=O)OC)cccc3c2)ncn1 | 87 to 88
O=c1c(-c2ccc(F)cc2)c(-c2ccc(S(=O)(=O)C(F)(F)F)cc2)cnn1Cc1ccccc1 | 80 to 115
COC(=O)c1cc(S(N)(=O)=O)cc2c1OCCO2 | 225 to 226
COc1cc2c(cc1F)C(=Cc1ccc(SC)cc1)C(C)=C2CC(=O)O | 172 to 174
OC1(c2cccc(Cl)c2)C2=NCCCN2c2ccccc21 (configuration not stated) | 186 to 187
CCCCCOc1ccc(-c2ncc(C#N)cn2)cc1 | 98 to 98.1
CCN(CC)CCCNC(=O)C1=C(O)c2ccccc2S(=O)(=O)N1C | 107 to 110
Cc1cc(-c2cccc(C(F)(F)F)c2)c2nc(OC(F)F)cnc2c1 | 103 to 104

Compound | melting point [°C]
O=c1[nH]sc2c1c(=O)c1cc(F)c(N3CCNCC3)cc1n2C1CC1 | > 275
NC(=S)NN=CC=Cc1ccccc1 | 137 to 139
CN(Cc1ccccc1)C(=O)Nc1cc(C(C)(C)C)on1 | 107 to 108
CC(C)(Oc1ccc(CC(=O)Nc2ccc(C(F)(F)F)cc2)cc1)C(=O)O | 197
N#Cc1ccc2ccc(Br)cc2c1 | 126 to 128
CCCCc1nc2cccc(CO)c2n1Cc1ccc(-c2ccccc2-c2nnn[nH]2)cc1 | 152 to 153
NC(=O)C1=CCCc2cc(Sc3ccccc3)cc(F)c21 | 224 to 226
Cc1c2n(c3ccccc13)C(=O)C(Cc1cncn1C)CC2 (configuration not stated) | 117 to 118
CC(C)n1c(C(=O)O)c(-c2ccc(F)cc2)c2ccccc2c1=O | 128 to 130
COC(=O)NC1=NC(c2cccc3ccccc23)CN1 (configuration not stated) | 208 to 209
O=C(NCCc1ccccc1)c1ccccc1-c1ccccc1CNS(=O)(=O)c1cccc(F)c1 | 153
O=c1c2ccccc2nc(CCc2c[nH]c3ccccc23)n1-c1ccccc1 | 193 to 194
Cn1c(CC(=O)NO)ccc1C(=O)c1ccc(Cl)cc1 | 195
CCCC[C@H](NC(=O)[C@H](CC(C)C)NC(=O)c1ccc(C(F)(F)F)cc1)C(=O)CSCc1ccco1 | 121 to 123
Cc1c(NC(=O)CC(C)(C)C)c(C)c(C(C)(C)O)c2c1C(c1ccc(C(C)C)cc1)CO2 (configuration not stated) | 133 to 134
COc1ccc(C(NCC(=O)Nc2c(C(C)C)cccc2C(C)C)c2ccccc2)cc1 (configuration not stated) | 117 to 118
C=CCc1c(OCc2ccccc2)ccc2c(=O)ccoc12 | 90 to 92
c1ccc(-c2ncnc3sc4c(c23)CCCC4)cc1 | 135 to 137
CC(C)[Si](C#Cc1ccc2cc3c(cc2c1)Cc1cc2cc(C#C[Si](C(C)C)(C(C)C)C(C)C)ccc2cc1C3)(C(C)C)C(C)C | 73 to 75
CN(C)Cc1ccc(CSCCNC2=NS(=O)(=O)N=C2N(C)C)o1 | 139 to 142
COc1cccc2c1nc(C)n2C | 122 to 124
N#CC(Sc1ccccc1)=C1SCCN1c1ccccc1 | 143 to 145
CCOc1cccc(-c2nc(-c3ccccc3COC(=O)OCc3ccccc3-c3n[nH]c(-c4cccc(OCC)c4)n3)n[nH]2)c1 | 143 to 145
CCCC(=O)NCCC1=C(Cc2ccccc2)Cc2ccc(OC)cc21 | 127 to 129
Cc1cccc(N2CCN(CCCON3C(=O)c4ccccc4C3=O)CC2)c1 | 127 to 128
CS(=O)(=O)Nc1ccc(CNC(=O)c2cccnc2Oc2ccc(F)cc2)cc1 | 107 to 109
CC(C)(C)c1nc(C=NO)nc(C(C)(C)C)c1O | 205 to 220

Now from value to compound:

melting point [°C] | Compound
181 to 183 | CCCCc1oc2ccccc2c1C(=O)Nc1ccc(-c2ccc(O)cc2)cc1
55 to 58 | CC(Sc1nc(N)cc(Cl)n1)c1ccc2ccccc2c1 (configuration not stated)
138 to 141 | CCC(C)(C)OC(=O)NC(C)(Cc1c[nH]c2ccccc12)C(=O)NCCc1ccncc1 (configuration not stated)
163 to 164 | CN(Cc1ccccc1)c1nc(N)nc(-c2cc(Cl)ccc2Cl)n1
227 | O=C(Nc1cccc(S(=O)(=O)NCc2ccccc2)c1)c1cnn2c(C(F)(F)F)cc(-c3ccc(C(F)(F)F)cc3)nc12
190 | O=C(C[C@@H]1COCCO1)N[C@H]1CC[C@H](CCN2CCC(c3cccc4c3CCO4)CC2)CC1
112 to 114 | Fc1ccc(C2OC3(CCNCC3)N3CCCCC23)cc1 (configuration not stated)
130 to 132 | CCON=C(C(C)=NOCc1ccccc1C(=NOC)C(=O)NC)c1ccc(OCc2cccc(C(F)(F)F)c2)cc1
84 | O=[N+]([O-])c1cc(Cl)c(Oc2cc(Cl)c(Cl)cc2Cl)cc1Oc1ccccc1
95 | CCOC(=O)CCc1cc(Cl)ccc1C(=O)CCCNC(=O)CCCNC(C)=O
148 to 151 | CC(C)CCC(=O)N[C@@H](CC(C)C)C(=O)N[C@@H](C(C)C)[C@@H](O)c1c(-c2ccccc2)c1=O
223 to 224 | CN(C)CCNC(=O)[C@H]1C[C@H](NC(=O)Nc2ccccc2)c2c(Cl)cc(Cl)cc2N1 (relative stereo)
146 to 148 | CCC(OCC(F)(F)F)c1ccc(Cl)c2nc3n(c12)CCCN3c1ccc(Cl)cc1Cl (configuration not stated)
86 | O[C@@H]1CCCC[C@H]1N=Cc1ccccc1 (relative stereo)
170 to 171 | CCOC(=O)NC(=O)C(C#N)=CNc1cccc(F)c1
162 to 164 | Nc1ccc(OC2CCN(C(=O)OCc3ccccc3)C2)cc1CS(=O)(=O)c1cccc2ccccc12 (configuration not stated)
121 to 123 | CCOc1c(-c2ccc(S(C)(=O)=O)cc2)cnn(-c2ccc(F)c(F)c2)c1=O
38.5 to 39.5 | CCOC(=O)Nc1cccc(C)c1C(=O)OCC
225 to 226 | CN1CCc2cc(-c3ccc4c(c3)CCN(CCN3CCCC3)C4=O)ccc2C1=O
172 to 173 | O=C(NCc1cccc(C(F)(F)F)c1)c1cncc2c1cnn2-c1ccc(F)cc1
243 to 245 | Cc1ccc(C2(c3ccc(C)cc3)CCN=C2NC(=O)c2cc(C)n[nH]2)cc1
258 to 259 | CCCn1c(=O)nc(SC)c2[nH]c(C3CCCC3)nc21

melting point [°C] | Compound
200 to 205 | Cn1ccc2cc(N3Cc4ccc(OC(F)(F)C(F)Cl)cc4C3=O)ccc21 (configuration not stated)
88 to 90 | CCOC(=O)c1cc(CC)sc1Nc1ccc(C(F)F)cc1[N+](=O)[O-]
116 to 118 | N#Cc1ccc(NC(=O)C(F)(F)C(F)(F)C(F)(F)F)cc1
114 | COc1ccc(S(=O)(=O)C2(C(=O)NO)CCN(Cc3ccc(OCCN4CCCCC4)cc3)CC2)cc1
165 to 166 | Cc1cccc(C(O)c2ccc(N)cc2)n1 (configuration not stated)
105 to 106 | CCCN(CC)Cc1nc2cc(OC)c(OC)cc2c(-c2ccc(OC)c(OC)c2)c1C(=O)OCC
142 to 143 | O=[N+]([O-])c1ccc(OCc2ccc3ccccc3n2)cc1
228 to 230 | CCc1cccc(C)c1CNc1cc(C(=O)N(C)C)cc2[nH]c(C)nc12
105 | CCCCCCCOc1ccc(C(=O)O)c(F)c1F
97 to 98 | CSCCNC(=O)c1sc(-c2cccnc2)nc1Cl
54 to 56 | CCC(=O)N1C(=O)C2C=CC1C2 (configuration not stated)
175 to 176 | CCCNC1=CC(=O)c2c(OC)ccc(OC)c2C1=O
224 | C#CCOc1ccc(-c2nc3cnncc3[nH]2)c(OC)c1
109 to 110 | Cc1oc(-c2ccccc2)nc1CCOc1ccc(CC#N)cc1
181 to 183 | COc1c(-c2cc3c(s2)CCC/C3=N\OCc2cccnc2)ccc2c(=O)c(C(=O)O)cn(C3CC3)c12
137 to 140 | O=C(O)c1ccc(NCCCCc2cccs2)cc1
215 to 219 | CC(C)(C)OCC(NC(=O)c1ccc2c(Cl)cnc(NC(=N)N)c2c1)C(=O)OC(C)(C)C (racemic)
228 to 230 | CCOC(=O)C(=CNc1ncnc2ccc([N+](=O)[O-])cc12)C(=O)OCC
110 | O=S(=O)(On1nnc2ccc(Cl)cc21)c1ccccc1
179 | Cc1ccc(-c2cc(C(O)/C=C/c3ccc(C(=O)O)cc3)cc3c2C(C)(C)CCC3(C)C)cc1 (configuration not stated)
216 | Brc1ccc(C2CCCc3cncn32)cc1 (configuration not stated)
